# ChEMBL document CHEMBL1132820, “DNA minor groove interactions and the biological activity of 2,5-bis” (Bioorg Med Chem Lett, 2000)
# Legend:
# Rattus norvegicus [1] = experiment: Number of mean cysts/g of lung tissue observed at 9-10 uM/kg/day dose of compound tested in vivo against Pneumocystis carinii pneumonia infected rats; format: functional
# Rattus norvegicus [2] = experiment: Number of mean cysts/g of lung tissue observed at 0.9 uM/kg/day dose of compound tested in vivo against Pneumocystis carinii pneumonia infected rats; format: functional
Structure (SMILES),PCP activity (Rattus norvegicus [1]),PCP activity (Rattus norvegicus [2])
N=C(NC1CCC1)c1ccc(-c2ccc(-c3ccc(C(=N)NC4CCC4)cc3)o2)cc1,0.05 cysts g-1,0.67 cysts g-1
N=C(NC1CCCCC1)c1ccc(-c2ccc(-c3ccc(C(=N)NC4CCCCC4)cc3)o2)cc1,0.02 cysts g-1,26.2 cysts g-1
N=C(NC1CCCC1)c1ccc(-c2ccc(-c3ccc(C(=N)NC4CCCC4)cc3)o2)cc1,0.03 cysts g-1,0.11 cysts g-1
